Laboratory results reported in article PMC6694155, “PTPσ inhibitors promote hematopoietic stem cell regeneration” (Nature Communications, 2019).
Several values for one entry are separate records, joined by “and”; a condition that tells them apart may be missing. Identical values can stand only once.

Test system: C57BL/6 mice
Test: Hematopoietic regeneration at day +10 after 750 cGy TBI (PB counts, BM KSL and progenitor cells, CFCs)
Assay type: in vivo, mouse
Design: Supplementary Figure 4c: BFU-E / Supplementary Figure 5e: CFU-GM / Supplementary Figure 5e: BFU-E / Supplementary Figure 5e: CFU-GEMM: unit not given here
Experimental: Femurs and tibiae were collected from killed C57BL/6 or Ptprs^−/− mice and flushed with IMDM containing 10% FBS and 1% penicillin–streptomycin for BM cells. PB was collected through sub-mandibular puncture. Cells were filtered through a 40 μM strainer and then treated with ACK lysis buffer (Sigma Aldrich) before antibody staining for flow cytometry. For KSL and CD150^+CD48^−KSL cell analysis, BM cells were stained with allophycocyanin (APC)-and Cy7-conjugated anti-mouse Sca1 (BD Biosciences, #560654, 1:100), phycoerythrin (PE)-conjugated anti-mouse c-kit (BD Biosciences, #553355, 1:100), V450 lineage cocktail (BD Biosciences, 561301, 1:10), Alexa Fluor 488-conjugated anti-mouse CD48 (BioLegend, #103414, 1:100), and Alexa Fluor 647-conjugated anti-mouse CD150 (Biolegend, #115918, 1:100) antibodies. For MEP, CMP, GMP, and CLP cell analysis, BM cells were stained with APC-Cy7-conjugated anti-mouse Sca1 (BD Biosciences, #560654, 1:100), PE-conjugated anti-mouse ckit (BD Biosciences, #553355, 1:100), V450 lineage cocktail (BD Biosciences, #561301; 1:10), Alexa Fluor 488-conjugated anti-mouse CD127 (BD Biosciences, #561533, 1:100), Alexa Fluor 647-conjugated anti-mouse CD34 (BD Biosciences, #560230; 1:100), and BV605-conjugated anti-mouse CD16/32 antibodies (BD Biosciences, #563006; 1:100). For donor engraftment analysis in transplanted mice, PB or BM cells were stained with BV605-conjugated anti-mouse CD45.2 (BioLegend, #109841, 1:100), fluorescein isothiocyanate (FITC)-conjugated anti-mouse CD45.1 (BD Biosciences, #553775, 1:100), PE-conjugated anti-mouse Mac-1 (BD Biosciences, #557397, 1:100) and anti-mouse Gr1 (BD Biosciences, #553128, 1:100), V450-conjugated anti-mouse CD3 (BD Biosciences, #561389, 1:100), and APC-Cy7-conjugated anti-mouse B220 (BD Biosciences, 552094, 1:100) antibodies.
For survival studies, 10-week-old female C57BL/6 mice were irradiated with 750 cGy TBI, which is lethal for ~50% of C57BL/6 mice by day + 30 (LD50/30), using a Shepherd Cesium-137 irradiator. Twenty four hours post irradiation, mice were administered daily subcutaneous injections of 5 mg/kg DJ001 or DJ009, or vehicle in a volume of 100 μL for 10 days. DJ001 or DJ009 injections were prepared in PBS, 0.5% Tween 80, and 10% DMSO. Corresponding vehicle injections contained PBS, 10% DMSO, and 0.5% Tween 80. PB complete blood counts were measured using a Hemavet 950 instrument (Drew Scientific) at day + 10 post irradiation. For hematopoietic analysis, BM cells were collected at day + 10 post irradiation. To study whether DJ001 increased survival rates through activation of RAC signaling, the RAC inhibitor, EHT1864 (Selleckchem), was dissolved in PBS and administered intraperitoneally, 40 mg/kg every other day, to 750 cGy-irradiated mice until day + 10.
CFC assays (colony-forming unit-granulocyte monocyte), burst-forming unit-erythroid, and CFU-GEMM were performed using MethoCult GF M3434 (Stemcell Technologies)[6]. For all in vitro assays, BM CD34^−KSL cells, KSL cells, and Lin^− cells were cultured in TSF media (IMDM, 10% FBS, 1% pen-strep, 20 ng/mL recombinant mouse TPO, 125 ng/mL recombinant mouse SCF, 50 ng/mL recombinant mouse Flt3 ligand). Recombinant mouse SCF, Flt3 ligand, and TPO were purchased from R&D Systems. For competitive repopulation assays, BM cells were isolated from donor 10–12-week-old female CD45.2^+ mice. Recipient 10-week-old female CD45.1^+ B6.SJL mice were irradiated with 950 cGy TBI using a Cs137 irradiator and donor BM cells were administered via tail vein injection along with a competing dose of 1 × 10^5 non-irradiated host BM cells. Multilineage donor hematopoietic cell engraftment was measured in the PB by flow cytometry.

[1] = day +10 after 750 cGy TBI, individual mice
[2] = day +10 after 750 cGy TBI, replicates
[3] = day +10 after 750 cGy, 5 mg/kg s.c. daily
[4] = day +10 after 750 cGy, 5 mg/kg s.c. daily, 5 mg/kg
[5] = after 750 cGy TBI, individual mice

O=C(/C=C\Nc1cccc([N+](=O)[O-])c1)c1ccccc1 [DJ001, (Z)-3-((3-nitrophenyl)amino)-1-phenylprop-2-en-1-one]
recovery of BM KSL cells, ckit+sca-1−lin− myeloid progenitors and CFCs following TBI (750 cGy, 5 mg/kg s.c. daily day +1 to +10): accelerated the recovery | percentages of BM MEPs, CMPs, GMPs, or PB myeloid, B-cell or T-cell populations (day +10 after 750 cGy): did not alter the percentages | percentages of BM common lymphoid progenitors (CLPs) (day +10 after 750 cGy): modest increase | Supplementary Figure 4d (center left panel): BM progenitor cells [1]: 0.05534 and 0.6345 and 0.3797 and 0.1366 and 0.1346 and 0.08271 and 0.1205 and 0.1142 and 0.1459 and 0.6791 | Supplementary Figure 4d (center right panel): BM progenitor cells [1]: 0.1315 and 0.5274 and 0.7758 and 0.2631 and 0.4325 and 0.1366 and 0.1603 and 0.4187 and 0.3345 and 1.367 | Supplementary Figure 4d (left panel): BM progenitor cells [1]: 0.1083 and 0.8819 and 0.5478 and 0.2535 and 0.1578 (2×) and 0.2622 and 0.4013 and 0.1995 and 0.6663 | Supplementary Figure 4d (right panel): BM progenitor cells [1]: 0.07453 and 0.07514 and 0.1093 and 0.1068 and 0.06267 and 0.05116 and 0.04956 and 0.2046 and 0.1087 | Supplementary Figure 4c: BFU-E [2]: 0 (2×) and 2 and 1 (3×) | Supplementary Figure 4c: CFU-GEMM [2]: 0 and 2 and 1 (2×) and 3 (2×) | Supplementary Figure 4c: CFU-GM [2]: 5 (3×) and 7 and 6 and 10 | PB lymphocytes compared with vehicle [3]: more than twofold increased | PB neutrophils compared with vehicle [3]: more than twofold increased | PB white blood cells compared with vehicle [3]: more than twofold increased | PB WBCs per mouse (Figure 2c left panel) [4]: 0.86 and 0.62 and 0.68 and 0.76 and 0.34 and 0.7 and 0.52 and 0.64 | PB lymphocytes (LYMPH) per mouse (Figure 2c right panel) [4]: 0.38 and 0.39 and 0.4 and 0.45 and 0.24 and 0.36 and 0.33 and 0.42 and 0.37 | PB neutrophils (NEU) per mouse (Figure 2c center panel) [4]: 0.27 and 0.16 and 0.18 and 0.17 and 0.06 and 0.2 and 0.12 | numbers of BM KSL cells per mouse (Figure 2e center left panel) (day +10 post 750 cGy): 15.7 and 9.66 and 15 and 10.6 and 9.42 and 14.8 and 11.8 and 11.5 and 10.7 | numbers of BM c-kit+sca-1− cells per mouse (Figure 2e right panel) (day +10 post 750 cGy): 1.33 and 6.87 and 4.4 and 4.05 and 3.27 and 5.18 and 7.29 and 2.89 and 7.28 | percentages of BM KSL cells per mouse (Figure 2e left panel) (day +10 post 750 cGy): 0.749% and 0.807% and 1.138% and 0.766% and 0.608% and 0.862% and 0.365% and 1.197% and 0.783% | percentages of BM c-kit+sca-1− cells per mouse (Figure 2e center right panel) (day +10 post 750 cGy): 1.717% and 4.73% and 3.337% and 2.916% and 2.11% and 3.013% and 2.25% and 3.004% and 5.312% | increase of percentages and numbers of BM KSL stem/progenitor cells compared to irradiated control mice (irradiated mice, day +10): 2 fold

O=C(/C=C\Nc1cc(F)cc(F)c1)c1ccccc1 [DJ009, (Z)-3-((3,5-difluorophenyl)amino)-1-phenylprop-2-en-1-one]
PB WBCs, neutrophils and lymphocytes, BM KSL cells, and CFCs (750 cGy TBI, 5 mg/kg DJ009 daily for 10 days): significant increase | Supplementary Figure 5c (center panel): PB counts [5]: 0.08 and 0.19 and 0.29 and 0.1 and 0.39 and 0.13 and 0.2 | Supplementary Figure 5c (left panel): PB counts [5]: 1.4 and 0.72 and 1.76 and 0.4 and 1.62 and 0.52 and 0.94 | Supplementary Figure 5c (right panel): PB counts [5]: 1.27 and 0.4 and 1.32 and 0.26 and 0.96 and 0.29 and 0.63 | Supplementary Figure 5d (center panel): BM cells [5]: 4.83 and 5.26 and 6.06 and 14.68 and 8.28 and 9.38 and 7.6 | Supplementary Figure 5d (left panel): BM cells [5]: 1.079 and 0.621 and 0.841 and 0.709 and 1.581 and 1.301 and 0.94 | Supplementary Figure 5e: BFU-E (after 750 cGy TBI, replicates): 0 (6×) and 1 (2×) and 2 | Supplementary Figure 5e: CFU-GEMM (after 750 cGy TBI, replicates): 1 and 0 (3×) and 3 and 2 (3×) and 4 | Supplementary Figure 5e: CFU-GM (after 750 cGy TBI, replicates): 5 and 4 and 2 and 6 and 8 and 7 and 19 and 18 and 15
